The results in this text go back to BindingDB's records for doi:10.7270/Q2513WMG (The Scripps Research Institute Molecular Screening Center, 2009).

The target of the assay is Transitional endoplasmic reticulum ATPase (Homo sapiens, UniProt P55072, C522A). Briefly: C522A mutant p97 ATPase inhibitors, dose response, counter-screen for p97 inhibitor project, biochemical, luminescence (AID 1544).
Transitional endoplasmic reticulum ATPase, sequence (P55072 2-806 C522A limits assumed): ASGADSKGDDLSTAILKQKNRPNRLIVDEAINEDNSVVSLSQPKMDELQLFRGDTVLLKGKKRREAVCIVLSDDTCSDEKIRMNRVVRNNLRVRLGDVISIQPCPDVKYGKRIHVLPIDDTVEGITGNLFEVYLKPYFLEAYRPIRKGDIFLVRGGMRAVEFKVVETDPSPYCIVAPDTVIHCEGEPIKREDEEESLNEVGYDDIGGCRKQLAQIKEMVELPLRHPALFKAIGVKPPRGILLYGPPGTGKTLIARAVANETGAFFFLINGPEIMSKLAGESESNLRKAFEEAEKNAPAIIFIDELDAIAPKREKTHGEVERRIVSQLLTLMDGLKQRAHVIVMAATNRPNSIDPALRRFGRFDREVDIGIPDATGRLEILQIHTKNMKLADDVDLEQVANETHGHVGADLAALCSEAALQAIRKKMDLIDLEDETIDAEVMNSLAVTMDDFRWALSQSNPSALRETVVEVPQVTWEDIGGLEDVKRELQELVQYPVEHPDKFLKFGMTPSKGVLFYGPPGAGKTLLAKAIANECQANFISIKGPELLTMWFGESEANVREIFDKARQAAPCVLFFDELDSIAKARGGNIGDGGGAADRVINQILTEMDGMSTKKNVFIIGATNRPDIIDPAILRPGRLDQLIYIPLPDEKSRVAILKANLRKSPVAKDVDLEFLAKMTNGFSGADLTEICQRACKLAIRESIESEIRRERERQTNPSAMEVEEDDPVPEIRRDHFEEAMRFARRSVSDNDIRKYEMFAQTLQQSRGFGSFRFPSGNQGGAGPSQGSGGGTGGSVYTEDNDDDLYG

In general, IC50 refers to the concentration at which inhibition is half-maximal. A lower IC50 goes with inhibition by little substance. `Cc1ccc(C)c(SCC(=O)OCC(=O)C(C#N)c2nc3ccccc3[nH]2)c1` (configuration not stated) [MLS000392255]: the IC50 was > 50 µM.
Then `COc1ccc(CN=Nc2nnc(-c3ccccc3)c(=O)[nH]2)cc1` [4-methoxybenzaldehyde (5-oxo-6-phenyl-4,5-dihydro-1,2,4-triazin-3-yl)hydrazone], with > 50 µM; and `NS(=O)(=O)c1ccc(N=NCc2ccc(O)c(O)c2O)c([N+](=O)[O-])c1` [4-[[(E)-(2,3-dihydroxy-4-oxo-1-cyclohexa-2,5-dienylidene)methyl]hydrazo]-3-nitrobenzenesulfonamide], with > 50 µM.
On to `Oc1ccc(CN=Nc2ccnc3cc(Cl)ccc23)cc1O` [(4Z)-4-[[2-(7-chloroquinolin-4-yl)hydrazinyl]methylidene]-2-hydroxycyclohexa-2,5-dien-1-one], for which the IC50 was > 50 µM.
The value for `Cc1ccc(SCC(=O)C(C#N)c2nc3ccccc3s2)cc1` (configuration not stated) [(2Z)-2-(3H-1,3-benzothiazol-2-ylidene)-3-keto-4-(p-tolylthio)butyronitrile] was > 50 µM; that for `CN(C)[C@@H]1C(=O)C(C(N)=O)C(=O)[C@@]2(O)C(=O)C3C(=O)c4c(O)cccc4[C@@](C)(O)[C@H]3[C@H](O)[C@@H]12` (stereo partly drawn) [(2E,4S,4aR,5S,5aR,6S,12aS)-2-[azanyl(oxidanyl)methylidene]-4-(dimethylamino)-6-methyl-5,6,10,11,12a-pentakis(oxidanyl)-4,4a,5,5a-tetrahydrotetracene-1,3,12-trione] was > 50 µM.
In the case of `On1[o+]nc2c1CCc1nc(-c3ccccc3)[n-]c1-2` [3-oxidanidyl-7-phenyl-4,5-dihydro-1H-imidazo[4,5-g][2,1,3]benzoxadiazol-3-ium], the IC50 was > 50 µM.
